Measurements taken from PubChem BioAssay (NCI).
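Cells were grown in 96-well plates and exposed to each compound for 48 hours at five concentrations; endpoints were interpolated linearly between bracketing concentrations, or set to the highest concentration if not reached. TGI: total growth inhibition.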

Assays:
Test in all cases: inhibition of tumour cell growth, NCI panel, 48 h
MDA-MB-435 = tested on: MDA-MB-435
SNB-75 CNS = tested on: SNB-75 CNS
TK-10 renal = tested on: TK-10 renal
NCI-H226 lung = tested on: NCI-H226 lung
EKVX NSCLC = tested on: EKVX NSCLC
OVCAR-3 ovarian = tested on: OVCAR-3 ovarian
OVCAR-4 ovarian = tested on: OVCAR-4 ovarian
SF-539 CNS = tested on: SF-539 CNS
SK-MEL-5 melanoma = tested on: SK-MEL-5 melanoma
HT29 colon = tested on: HT29 colon
SK-OV-3 ovarian = tested on: SK-OV-3 ovarian
SK-MEL-28 melanoma = tested on: SK-MEL-28 melanoma
U251 CNS = tested on: U251 CNS
MDA-MB-231 breast = tested on: MDA-MB-231 breast
786-0 renal = tested on: 786-0 renal
UACC-62 melanoma = tested on: UACC-62 melanoma
KM12 colon = tested on: KM12 colon
SW-620 colon = tested on: SW-620 colon
SR leukemia = tested on: SR leukemia
RPMI-8226 leukemia = tested on: RPMI-8226 leukemia

SMILES | TGI (MDA-MB-435) | TGI (SNB-75 CNS) | TGI (TK-10 renal) | TGI (NCI-H226 lung) | TGI (EKVX NSCLC) | TGI (OVCAR-3 ovarian) | TGI (OVCAR-4 ovarian) | TGI (SF-539 CNS) | TGI (SK-MEL-5 melanoma) | TGI (HT29 colon) | TGI (SK-OV-3 ovarian) | TGI (SK-MEL-28 melanoma) | TGI (U251 CNS) | TGI (MDA-MB-231 breast) | TGI (786-0 renal) | TGI (UACC-62 melanoma) | TGI (KM12 colon) | TGI (SW-620 colon) | TGI (SR leukemia) | TGI (RPMI-8226 leukemia)
COC(=O)c1ccc(C)cc1CC1Cc2cccc(C)c2C1=O (stereo not drawn) | 3.34 µM | 36.9 µM | 48.6 µM | 9.66 µM | 13.9 µM | 30.7 µM | 95.8 µM | 17.6 µM | 11.4 µM | 6.06 µM | 92 µM | 55.7 µM | 17.4 µM | 51.9 µM | > 100 µM | 49.6 µM | 23 µM | > 100 µM |  | 
C=CCN1C[C@H](C)N([C@H](c2ccc(C(=O)N(CC)CC)cc2)c2cccc(OC)c2)C[C@H]1C | > 100 µM |  | > 100 µM | 95.6 µM | > 100 µM | 50.5 µM | > 100 µM | > 100 µM | 27.6 µM | > 100 µM | > 100 µM | > 100 µM | > 100 µM | > 100 µM | > 100 µM | > 100 µM | > 100 µM | > 100 µM | > 100 µM | > 100 µM
CN1C(=O)C(C(=O)Nc2ccccn2)C2C[C@@]1(C)Oc1ccccc12 (stereo partly drawn) | > 100 µM | > 100 µM | > 100 µM | > 100 µM | > 100 µM | > 100 µM | > 100 µM |  | > 100 µM | > 100 µM | > 100 µM | > 100 µM | > 100 µM | > 100 µM | > 100 µM | > 100 µM | > 100 µM | > 100 µM |  | > 100 µM
COc1c(C(C)(C)C)cc(CC2C(=O)C=CC2=O)cc1C(C)(C)C | 37.4 µM |  | 12.1 µM |  | 37.7 µM | 33.9 µM | 89.5 µM | 48.3 µM | 33.9 µM | 36.1 µM | 56 µM | 43.4 µM | 35.4 µM | 36.5 µM | > 22.3 µM | 33.2 µM | 34 µM | 28.2 µM | 19.1 µM | 11.6 µM
N#CC(C#N)=c1c2ccccc2c(=C(C#N)C#N)c2ccccc12 | 40.1 µM | 39.8 µM |  | 38.2 µM |  | 30 µM |  |  | 31 µM | 39.5 µM | 44.4 µM | 48.3 µM | 55.4 µM | 32.9 µM | 30.6 µM | 28.5 µM | 37.6 µM | 82.8 µM |  | > 100 µM
O=C1c2ccccc2C(=O)c2c(NC(=O)C3CC3)ccc(NC(=O)C3CC3)c21 | > 100 µM |  | > 100 µM |  | > 100 µM | > 100 µM |  | > 100 µM | > 100 µM | > 100 µM |  | > 100 µM | > 100 µM | > 100 µM | > 100 µM | > 100 µM | > 100 µM | > 100 µM | > 100 µM | > 100 µM
COC1=C2CC(C)CC(OC)C(OC(=O)CN)[C@H](C)/C=C(\C)C(OC(N)=O)C(OC)/C=C\C=C(/C)C(=O)NC(=CC1=O)C2=O (stereo partly drawn) | 2.89 µM |  | 15.6 µM | 24.7 µM | 13.1 µM | 2.98 µM | 8.38 µM | 12.7 µM | 4.51 µM | 11.2 µM | 16.7 µM | 1.75 µM | 12.6 µM | 1.6 µM | 6.45 µM | 1.78 µM | 4.29 µM | 1.25 µM | 1.98 µM | > 100 µM
